Source: PubChem BioAssay (NCI)
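Interpolation was linear, between the two tested concentrations surrounding the appropriate level; five concentrations were tested over 48 hours in 96-well plates. TGI is the concentration that stops growth completely.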

Legend:
Experiment in all cases: inhibition of tumour cell growth, NCI panel, 48 h
TK-10 renal = tested on: TK-10 renal
NCI-H522 lung = tested on: NCI-H522 lung
DLD-1 colon = tested on: DLD-1 colon
RXF-631 renal = tested on: RXF-631 renal
OVCAR-3 ovarian = tested on: OVCAR-3 ovarian
RPMI-8226 leukemia = tested on: RPMI-8226 leukemia
OVCAR-8 ovarian = tested on: OVCAR-8 ovarian
786-0 renal = tested on: 786-0 renal
DMS 114 small cell lung = tested on: DMS 114 small cell lung
CAKI-1 renal = tested on: CAKI-1 renal
XF 498 CNS = tested on: XF 498 CNS
HOP-92 NSCLC = tested on: HOP-92 NSCLC
SK-MEL-2 melanoma = tested on: SK-MEL-2 melanoma
RXF 393 renal = tested on: RXF 393 renal
M14 melanoma = tested on: M14 melanoma
SF-539 CNS = tested on: SF-539 CNS
EKVX NSCLC = tested on: EKVX NSCLC
SNB-19 CNS = tested on: SNB-19 CNS
U251 CNS = tested on: U251 CNS
LXFL 529 NSCLC = tested on: LXFL 529 NSCLC
KM20L2 colon = tested on: KM20L2 colon
SNB-78 CNS = tested on: SNB-78 CNS
NCI-H226 lung = tested on: NCI-H226 lung
COLO 205 colon = tested on: COLO 205 colon
HOP-62 NSCLC = tested on: HOP-62 NSCLC
ACHN renal = tested on: ACHN renal
HCT-116 colon = tested on: HCT-116 colon
NCI-H460 lung = tested on: NCI-H460 lung
M19-MEL melanoma = tested on: M19-MEL melanoma
KM12 colon = tested on: KM12 colon
HT29 colon = tested on: HT29 colon
LOX IMVI melanoma = tested on: LOX IMVI melanoma
SK-OV-3 ovarian = tested on: SK-OV-3 ovarian
UACC-257 melanoma = tested on: UACC-257 melanoma
SNB-75 CNS = tested on: SNB-75 CNS
NCI-H23 lung = tested on: NCI-H23 lung
SK-MEL-28 melanoma = tested on: SK-MEL-28 melanoma
SW-620 colon = tested on: SW-620 colon
A549 NSCLC = tested on: A549 NSCLC
CCRF-CEM leukemia = tested on: CCRF-CEM leukemia
HCC-2998 colon = tested on: HCC-2998 colon
IGROV1 ovarian = tested on: IGROV1 ovarian
SF-295 CNS = tested on: SF-295 CNS
HL-60(TB) leukemia = tested on: HL-60(TB) leukemia
UACC-62 melanoma = tested on: UACC-62 melanoma
HCT-15 colon = tested on: HCT-15 colon
SF-268 CNS = tested on: SF-268 CNS
SK-MEL-5 melanoma = tested on: SK-MEL-5 melanoma
K-562 leukemia = tested on: K-562 leukemia
MALME-3M melanoma = tested on: MALME-3M melanoma
HOP-18 NSCLC = tested on: HOP-18 NSCLC
DMS 273 small cell lung = tested on: DMS 273 small cell lung
OVCAR-5 ovarian = tested on: OVCAR-5 ovarian
OVCAR-4 ovarian = tested on: OVCAR-4 ovarian
UO-31 renal = tested on: UO-31 renal
A498 renal = tested on: A498 renal
SN12C renal = tested on: SN12C renal
MOLT-4 leukemia = tested on: MOLT-4 leukemia
SR leukemia = tested on: SR leukemia

Cc1nc2c(nc1C)C(=O)C1=C(C2=O)C2C=CC1CC2
TGI (TK-10 renal): > 55.9 µM
TGI (NCI-H522 lung): 5.91 µM
TGI (DLD-1 colon): 21.6 µM
TGI (RXF-631 renal): 13.9 µM
TGI (OVCAR-3 ovarian): 17.3 µM
TGI (RPMI-8226 leukemia): 7.35 µM
TGI (OVCAR-8 ovarian): 10.8 µM
TGI (786-0 renal): 24.8 µM
TGI (DMS 114 small cell lung): 3.71 µM
TGI (CAKI-1 renal): 37.6 µM
TGI (XF 498 CNS): 14.5 µM
TGI (HOP-92 NSCLC): 4.48 µM
TGI (SK-MEL-2 melanoma): 29 µM
TGI (RXF 393 renal): 18.5 µM
TGI (M14 melanoma): 27.3 µM
TGI (SF-539 CNS): 26.9 µM
TGI (EKVX NSCLC): 18.9 µM
TGI (SNB-19 CNS): > 61.2 µM
TGI (U251 CNS): 10.1 µM
TGI (LXFL 529 NSCLC): 3.19 µM
TGI (KM20L2 colon): 52.8 µM
TGI (SNB-78 CNS): 10.6 µM
TGI (NCI-H226 lung): 30.8 µM
TGI (COLO 205 colon): 29.8 µM
TGI (HOP-62 NSCLC): 53.9 µM
TGI (ACHN renal): 24.9 µM
TGI (HCT-116 colon): 3.12 µM
TGI (NCI-H460 lung): 39.8 µM
TGI (M19-MEL melanoma): 3.46 µM
TGI (KM12 colon): 33.3 µM
TGI (HT29 colon): 41.7 µM
TGI (LOX IMVI melanoma): 6.14 µM
TGI (SK-OV-3 ovarian): > 96.3 µM
TGI (UACC-257 melanoma): 14.5 µM
TGI (SNB-75 CNS): 61.6 µM
TGI (NCI-H23 lung): 19.6 µM
TGI (SK-MEL-28 melanoma): 35.6 µM
TGI (SW-620 colon): 8.09 µM
TGI (A549 NSCLC): 41.5 µM
TGI (CCRF-CEM leukemia): 5.9 µM
TGI (HCC-2998 colon): > 62.1 µM
TGI (IGROV1 ovarian): 9.93 µM
TGI (SF-295 CNS): 25 µM
TGI (HL-60(TB) leukemia): 4.26 µM
TGI (UACC-62 melanoma): 12.3 µM
TGI (HCT-15 colon): 38.1 µM
TGI (SF-268 CNS): 12.3 µM
TGI (SK-MEL-5 melanoma): 4.82 µM
TGI (K-562 leukemia): 6.15 µM
TGI (MALME-3M melanoma): 24.4 µM
TGI (HOP-18 NSCLC): 30.2 µM
TGI (DMS 273 small cell lung): 29.8 µM
TGI (OVCAR-5 ovarian): 36.9 µM
TGI (OVCAR-4 ovarian): 3.5 µM
TGI (UO-31 renal): 26.1 µM
TGI (A498 renal): 98.7 µM
TGI (SN12C renal): 32.4 µM
TGI (MOLT-4 leukemia): 5.38 µM

Cc1cc(NS(=O)(=O)c2ccc(NC(=O)c3ccc(Cl)c4c(Nc5ccc(S(N)(=O)=O)cc5)c5ccccc5nc34)cc2)no1
TGI (TK-10 renal): 86.2 µM
TGI (NCI-H522 lung): 23.7 µM
TGI (DLD-1 colon): 52.4 µM
TGI (RXF-631 renal): 50.2 µM
TGI (OVCAR-3 ovarian): 37.7 µM
TGI (OVCAR-8 ovarian): 36.6 µM
TGI (786-0 renal): 34.8 µM
TGI (DMS 114 small cell lung): 39.7 µM
TGI (CAKI-1 renal): 40.5 µM
TGI (XF 498 CNS): 36 µM
TGI (HOP-92 NSCLC): 39.2 µM
TGI (RXF 393 renal): 31.3 µM
TGI (M14 melanoma): 65.7 µM
TGI (SF-539 CNS): 39.2 µM
TGI (EKVX NSCLC): 89.1 µM
TGI (SNB-19 CNS): 30.2 µM
TGI (U251 CNS): 27 µM
TGI (LXFL 529 NSCLC): 31.4 µM
TGI (KM20L2 colon): 56.6 µM
TGI (SNB-78 CNS): > 100 µM
TGI (NCI-H226 lung): 46 µM
TGI (COLO 205 colon): 34.3 µM
TGI (HOP-62 NSCLC): 41.1 µM
TGI (ACHN renal): 73.8 µM
TGI (HCT-116 colon): 30.8 µM
TGI (NCI-H460 lung): 83.1 µM
TGI (M19-MEL melanoma): 38.4 µM
TGI (KM12 colon): 37.8 µM
TGI (HT29 colon): 44.7 µM
TGI (LOX IMVI melanoma): 29.7 µM
TGI (SK-OV-3 ovarian): 59.2 µM
TGI (UACC-257 melanoma): 50.9 µM
TGI (SNB-75 CNS): 42.6 µM
TGI (SR leukemia): 56.9 µM
TGI (NCI-H23 lung): 49.3 µM
TGI (SK-MEL-28 melanoma): 42.3 µM
TGI (SW-620 colon): 38.9 µM
TGI (A549 NSCLC): > 100 µM
TGI (HCC-2998 colon): 33.2 µM
TGI (IGROV1 ovarian): 44.2 µM
TGI (SF-295 CNS): 70 µM
TGI (HL-60(TB) leukemia): 65.6 µM
TGI (UACC-62 melanoma): 25.2 µM
TGI (HCT-15 colon): > 100 µM
TGI (SF-268 CNS): 40.8 µM
TGI (SK-MEL-5 melanoma): 33.9 µM
TGI (K-562 leukemia): > 100 µM
TGI (MALME-3M melanoma): 29.3 µM
TGI (HOP-18 NSCLC): 83 µM
TGI (DMS 273 small cell lung): 47.4 µM
TGI (OVCAR-5 ovarian): 56.7 µM
TGI (OVCAR-4 ovarian): 47 µM
TGI (UO-31 renal): 69.8 µM
TGI (A498 renal): 49.9 µM
TGI (SN12C renal): 58.6 µM
TGI (MOLT-4 leukemia): 56.6 µM

COc1cc2c3c(c1OC)-c1ccccc1C(C(O)c1ccccc1)C3N(C)CC2 (stereo not given)
TGI (TK-10 renal): > 100 µM
TGI (NCI-H522 lung): 35.9 µM
TGI (DLD-1 colon): 66.1 µM
TGI (RXF-631 renal): 65.8 µM
TGI (OVCAR-3 ovarian): > 100 µM
TGI (RPMI-8226 leukemia): 82.7 µM
TGI (OVCAR-8 ovarian): > 100 µM
TGI (786-0 renal): > 100 µM
TGI (DMS 114 small cell lung): 43.9 µM
TGI (XF 498 CNS): 52.3 µM
TGI (HOP-92 NSCLC): > 100 µM
TGI (SK-MEL-2 melanoma): 88.2 µM
TGI (RXF 393 renal): 29.1 µM
TGI (M14 melanoma): 35.6 µM
TGI (SF-539 CNS): 42.3 µM
TGI (EKVX NSCLC): > 100 µM
TGI (SNB-19 CNS): > 100 µM
TGI (U251 CNS): > 100 µM
TGI (LXFL 529 NSCLC): > 100 µM
TGI (KM20L2 colon): 48.8 µM
TGI (SNB-78 CNS): > 100 µM
TGI (NCI-H226 lung): 72.8 µM
TGI (COLO 205 colon): 29.6 µM
TGI (HOP-62 NSCLC): 71.6 µM
TGI (ACHN renal): > 100 µM
TGI (HCT-116 colon): 39.2 µM
TGI (NCI-H460 lung): 90 µM
TGI (M19-MEL melanoma): > 100 µM
TGI (KM12 colon): 72.4 µM
TGI (HT29 colon): 72 µM
TGI (LOX IMVI melanoma): > 100 µM
TGI (SK-OV-3 ovarian): > 100 µM
TGI (UACC-257 melanoma): 40.6 µM
TGI (SNB-75 CNS): > 100 µM
TGI (SR leukemia): 47 µM
TGI (NCI-H23 lung): > 100 µM
TGI (SK-MEL-28 melanoma): 41.6 µM
TGI (SW-620 colon): > 100 µM
TGI (A549 NSCLC): > 100 µM
TGI (CCRF-CEM leukemia): > 100 µM
TGI (HCC-2998 colon): 33.7 µM
TGI (IGROV1 ovarian): 80.6 µM
TGI (SF-295 CNS): > 100 µM
TGI (HL-60(TB) leukemia): 43.6 µM
TGI (UACC-62 melanoma): > 100 µM
TGI (HCT-15 colon): 76.9 µM
TGI (SF-268 CNS): > 100 µM
TGI (SK-MEL-5 melanoma): 28 µM
TGI (K-562 leukemia): 76.4 µM
TGI (MALME-3M melanoma): 35 µM
TGI (HOP-18 NSCLC): > 100 µM
TGI (DMS 273 small cell lung): 64.6 µM
TGI (OVCAR-5 ovarian): > 100 µM
TGI (UO-31 renal): 68.3 µM
TGI (SN12C renal): 99.2 µM
TGI (MOLT-4 leukemia): 89 µM
